Laboratory results from US12077503B2, “Substituted cyclic amides and their use as herbicides” (FMC CORPORATION, priority 2015, dated 2024).

Assays:
Type in all cases: in vivo
[1] = tested on: barnyardgrass (Echinochloa crus-galli); experiment: Test G Post-Emergence Protocol; conditions: Echinochloa crus-galli, post-emergence, 312 h; for pest or weed control at 15.625 g/ha: 15.625 g ai/ha, evaluated after 13 days (100=total damage to plant; 0=no damage to plant), read-out: Barnyardgrass damage rating; for pest or weed control at 62.5 g/ha: 62.5 g ai/ha, read-out: Barnyardgrass damage rating (100=total damage to plant; 0=no damage to plant); for pest or weed control at 62.5 g/ha / pest or weed control at 250 g/ha: evaluated after 13 days; for pest or weed control at 250 g/ha: 250 g ai/ha, read-out: damage to plant, Barnyardgrass (100=total damage to plant; 0=no damage to plant)
In short: (§1)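 Pot-grown seedlings, 8 days old, raised in a glasshouse at 24/16 °C day/night with 14 h light and 65% humidity, were sprayed post-emergence with test compound in acetone/water (50:50) plus 0.5% Tween 20 at 15.625, 62.5 or 250 g/ha. Damage was scored visually 13 days later on a 0–100 scale (100 = total damage).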

[2] = tested on: giant foxtail (Setaria faberi); experiment: Test G Post-Emergence Protocol; conditions: Setaria faberi, post-emergence, 312 h; for pest or weed control at 15.625 g/ha: 15.625 g ai/ha, evaluated after 13 days (100=total damage to plant; 0=no damage to plant), read-out: Foxtail, Giant damage rating; for pest or weed control at 62.5 g/ha: 62.5 g ai/ha, read-out: Foxtail, Giant damage rating (100=total damage to plant; 0=no damage to plant); for pest or weed control at 62.5 g/ha / pest or weed control at 250 g/ha: evaluated after 13 days; for pest or weed control at 250 g/ha: 250 g ai/ha, read-out: damage to plant, Foxtail, Giant (100=total damage to plant; 0=no damage to plant)
In short: as §1

[3] = tested on: corn (Zea mays); experiment: Test G Post-Emergence Protocol; conditions: Zea mays, post-emergence, 312 h; for plant injury at 15.625 g/ha: 15.625 g ai/ha, evaluated after 13 days (100=total damage to plant; 0=no damage to plant), read-out: Corn damage rating; for plant injury at 62.5 g/ha: 62.5 g ai/ha, read-out: Corn damage rating (100=total damage to plant; 0=no damage to plant); for plant injury at 62.5 g/ha / plant injury at 250 g/ha: evaluated after 13 days; for plant injury at 250 g/ha: 250 g ai/ha, read-out: damage to plant, Corn (100=total damage to plant; 0=no damage to plant)
In short: as §1

[4] = tested on: redroot pigweed (Amaranthus retroflexus); experiment: Test G Post-Emergence Protocol; conditions: Amaranthus retroflexus, post-emergence, 312 h; for pest or weed control at 15.625 g/ha: 15.625 g ai/ha, evaluated after 13 days (100=total damage to plant; 0=no damage to plant), read-out: Pigweed, Redroot damage rating; for pest or weed control at 62.5 g/ha: 62.5 g ai/ha, read-out: Pigweed, Redroot damage rating (100=total damage to plant; 0=no damage to plant); for pest or weed control at 62.5 g/ha / pest or weed control at 250 g/ha: evaluated after 13 days; for pest or weed control at 250 g/ha: 250 g ai/ha, read-out: damage to plant, Pigweed, Redroot (100=total damage to plant; 0=no damage to plant)
In short: as §1

[5] = tested on: velvetleaf (Abutilon theophrasti); experiment: Test G Post-Emergence Protocol; conditions: Abutilon theophrasti, post-emergence, 312 h; for pest or weed control at 15.625 g/ha: 15.625 g ai/ha, evaluated after 13 days (100=total damage to plant; 0=no damage to plant), read-out: Velvetleaf damage rating; for pest or weed control at 62.5 g/ha: 62.5 g ai/ha, read-out: Velvetleaf damage rating (100=total damage to plant; 0=no damage to plant); for pest or weed control at 62.5 g/ha / pest or weed control at 250 g/ha: evaluated after 13 days; for pest or weed control at 250 g/ha: 250 g ai/ha, read-out: damage to plant, Velvetleaf (100=total damage to plant; 0=no damage to plant)
In short: as §1

[6] = tested on: ivy-leaved morning glory (Ipomoea hederacea); experiment: Test G Post-Emergence Protocol; conditions: Ipomoea, post-emergence, 312 h; for pest or weed control at 15.625 g/ha: 15.625 g ai/ha, evaluated after 13 days (100=total damage to plant; 0=no damage to plant), read-out: Morningglory, Ivy-leaved damage rating; for pest or weed control at 62.5 g/ha: 62.5 g ai/ha, read-out: Morningglory, Ivy-leaved damage rating (100=total damage to plant; 0=no damage to plant); for pest or weed control at 62.5 g/ha / pest or weed control at 250 g/ha: evaluated after 13 days; for pest or weed control at 250 g/ha: 250 g ai/ha, read-out: damage to plant, Morningglory, Ivy-leaved (100=total damage to plant; 0=no damage to plant)
In short: as §1

[7] = tested on: barnyardgrass (Echinochloa crus-galli); experiment: Test G Pre-Emergence Protocol; conditions: Echinochloa crus-galli, pre-emergence, 312 h, evaluated after 13 days; for pest or weed control at 15.625 g/ha: 15.625 g ai/ha, read-out: Barnyard grass damage rating (100=total damage to plant; 0=no damage to plant); for pest or weed control at 62.5 g/ha: 62.5 g ai/ha, 100=total damage to plant, 0=no damage to plant, read-out: plant damage rating, Barnyardgrass; for pest or weed control at 250 g/ha: 250 g ai/ha, read-out: Barnyardgrass damage rating (100=total damage to plant; 0=no damage to plant)
In short: (§2)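 Glasshouse pre-emergence test: soil-sown seeds, sprayed after 1 d at 15.625, 62.5 or 250 g/ha. Conditions 24/16° C day/night, 14 h light, 65% humidity, watering twice daily. Rating 13 d post-spray (100 = total damage).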

[8] = tested on: giant foxtail (Setaria faberi); experiment: Test G Pre-Emergence Protocol; conditions: Setaria faberi, pre-emergence, 312 h, evaluated after 13 days; for pest or weed control at 15.625 g/ha: 15.625 g ai/ha; for pest or weed control at 15.625 g/ha / pest or weed control at 250 g/ha: read-out: Foxtail, Giant damage rating (100=total damage to plant; 0=no damage to plant); for pest or weed control at 62.5 g/ha: 62.5 g ai/ha, 100=total damage to plant, 0=no damage to plant, read-out: plant damage rating, Foxtail, Giant; for pest or weed control at 250 g/ha: 250 g ai/ha
In short: as §2

[9] = tested on: corn (Zea mays); experiment: Test G Pre-Emergence Protocol; conditions: Zea mays, pre-emergence, 312 h, evaluated after 13 days; for plant injury at 15.625 g/ha: 15.625 g ai/ha; for plant injury at 15.625 g/ha / plant injury at 250 g/ha: read-out: Corn damage rating (100=total damage to plant; 0=no damage to plant); for plant injury at 62.5 g/ha: 62.5 g ai/ha, 100=total damage to plant, 0=no damage to plant, read-out: plant damage rating, Corn; for plant injury at 250 g/ha: 250 g ai/ha
In short: as §2

[10] = tested on: redroot pigweed (Amaranthus retroflexus); experiment: Test G Pre-Emergence Protocol; conditions: Amaranthus retroflexus, pre-emergence, 312 h, evaluated after 13 days; for pest or weed control at 15.625 g/ha: 15.625 g ai/ha; for pest or weed control at 15.625 g/ha / pest or weed control at 250 g/ha: read-out: Pigweed, Redroot damage rating (100=total damage to plant; 0=no damage to plant); for pest or weed control at 62.5 g/ha: 62.5 g ai/ha, 100=total damage to plant, 0=no damage to plant, read-out: plant damage rating, Pigweed, Redroot; for pest or weed control at 250 g/ha: 250 g ai/ha
In short: as §2

[11] = tested on: velvetleaf (Abutilon theophrasti); experiment: Test G Pre-Emergence Protocol; conditions: Abutilon theophrasti, pre-emergence, 312 h, evaluated after 13 days; for pest or weed control at 15.625 g/ha: 15.625 g ai/ha; for pest or weed control at 15.625 g/ha / pest or weed control at 250 g/ha: read-out: Velvetleaf damage rating (100=total damage to plant; 0=no damage to plant); for pest or weed control at 62.5 g/ha: 62.5 g ai/ha, 100=total damage to plant, 0=no damage to plant, read-out: plant damage rating, Velvetleaf; for pest or weed control at 250 g/ha: 250 g ai/ha
In short: as §2

[12] = tested on: ivy-leaved morning glory (Ipomoea hederacea); experiment: Test G Pre-Emergence Protocol; conditions: Ipomoea, pre-emergence, 312 h, evaluated after 13 days; for pest or weed control at 15.625 g/ha: 15.625 g ai/ha, read-out: Morning-glory, Ivy-leaved damage rating (100=total damage to plant; 0=no damage to plant); for pest or weed control at 62.5 g/ha: 62.5 g ai/ha, 100=total damage to plant, 0=no damage to plant, read-out: plant damage rating, Morningglory, Ivy-leaved; for pest or weed control at 250 g/ha: 250 g ai/ha, read-out: Morningglory, Ivy-leaved damage rating (100=total damage to plant; 0=no damage to plant)
In short: as §2

Row | SMILES | pest or weed control at 15.625 g/ha [1] [%] | pest or weed control at 62.5 g/ha [1] [%] | pest or weed control at 250 g/ha [1] [%] | pest or weed control at 15.625 g/ha [2] [%] | pest or weed control at 62.5 g/ha [2] [%] | pest or weed control at 250 g/ha [2] [%] | plant injury at 15.625 g/ha [3] [%] | plant injury at 62.5 g/ha [3] [%] | plant injury at 250 g/ha [3] [%] | pest or weed control at 15.625 g/ha [4] [%] | pest or weed control at 62.5 g/ha [4] [%] | pest or weed control at 250 g/ha [4] [%] | pest or weed control at 15.625 g/ha [5] [%] | pest or weed control at 62.5 g/ha [5] [%] | pest or weed control at 250 g/ha [5] [%] | pest or weed control at 15.625 g/ha [6] [%] | pest or weed control at 62.5 g/ha [6] [%] | pest or weed control at 250 g/ha [6] [%] | pest or weed control at 15.625 g/ha [7] [%] | pest or weed control at 62.5 g/ha [7] [%] | further results
1 | CSc1nc(N)cc(NC(=O)[C@@H]2C(=O)N(C)C[C@H]2c2ccc(C(F)(F)F)cc2)n1 (racemic) [Compound 1644] | 0 | 0 | 20 | 0 | 20 | 30 | 0 | 0 | 0 | 0 | 0 | 0 | 0 | 0 | 0 | 0 | 10 | 40 | 0 | 0 | pest or weed control at 250 g/ha [7]: 0%; pest or weed control at 15.625 g/ha [8]: 0%; pest or weed control at 62.5 g/ha [8]: 0%; pest or weed control at 250 g/ha [8]: 0%; plant injury at 15.625 g/ha [9]: 0%; plant injury at 62.5 g/ha [9]: 0%; plant injury at 250 g/ha [9]: 0%; pest or weed control at 15.625 g/ha [10]: 0%; pest or weed control at 62.5 g/ha [10]: 0%; pest or weed control at 250 g/ha [10]: 0%; pest or weed control at 15.625 g/ha [11]: 0%; pest or weed control at 62.5 g/ha [11]: 0%; pest or weed control at 250 g/ha [11]: 0%; pest or weed control at 15.625 g/ha [12]: 0%; pest or weed control at 62.5 g/ha [12]: 0%; pest or weed control at 250 g/ha [12]: 0%
2 | CN1C[C@@H](c2ccc(C(F)(F)F)cc2)[C@H](C(=O)Nc2cn[nH]c2)C1=O (racemic) [Compound 1646] | 0 | 0 | 0 | 0 | 10 | 20 | 0 | 0 | 0 | 0 | 0 | 0 | 0 | 0 | 0 | 0 | 0 | 0 | 0 | 0 | pest or weed control at 250 g/ha [7]: 0%; pest or weed control at 15.625 g/ha [8]: 0%; pest or weed control at 62.5 g/ha [8]: 0%; pest or weed control at 250 g/ha [8]: 0%; plant injury at 15.625 g/ha [9]: 0%; plant injury at 62.5 g/ha [9]: 0%; plant injury at 250 g/ha [9]: 0%; pest or weed control at 15.625 g/ha [10]: 0%; pest or weed control at 62.5 g/ha [10]: 0%; pest or weed control at 250 g/ha [10]: 0%; pest or weed control at 15.625 g/ha [11]: 0%; pest or weed control at 62.5 g/ha [11]: 0%; pest or weed control at 250 g/ha [11]: 0%; pest or weed control at 15.625 g/ha [12]: 0%; pest or weed control at 62.5 g/ha [12]: 0%; pest or weed control at 250 g/ha [12]: 0%
